Assay results as given in patent US9290507B2, “B-RAF kinase inhibitors” (Boehringer Ingelheim International GmbH, priority 2010, dated 2016).

biological target: B-Raf (V600E)-kinase (Homo sapiens (Human), UniProt P15056, V600E); assay: Kinase test B-Raf (V600E); type: biochemical; settings: 1 h preincubation, 250 μM ATP
Description: In a dilution series 10 μL/well of test substance solution are placed in a multiwell plate. The dilution series is selected so that generally a range of concentrations of 2 μM to 0.119 nM or 0.017 nM is covered. If necessary the initial concentration of 2 μM is changed to 50 μM, 10 μM or 0.4 μM or 0.2857 μM and further dilution is carried out accordingly. The final concentration of DMSO is 5%. 10 μL/well of the B-Raf (V600E)-kinase solution are pipetted in (containing 0.5 ng B-Raf (V600E)-kinase (e.g. from Upstate) in 20 mM Tris-HCl pH 7.5, 0.1 mM EDTA, 0.1 mM EGTA, 0.286 mM sodium orthovanadate, 10% glycerol, 1 mg/mL bovine serum albumin, 1 mM dithiothreitol) and the mixture is incubated for 1 h at RT under with shaking. The kinase reaction is started by the addition of 20 μL/well ATP solution [final concentration: 250 μM ATP, 30 mM Tris-HCl pH 7.5, 0.02% Brij, 0.2 mM sodium orthovanadate, 10 mM magnesium acetate, 0.1 mM EGTA, phosphatase cocktail (Sigma, #P2850, dilution recommended by the manufacturer)] and 10 μL/well MEK1 solution [containing 50 ng biotinylated MEK1 (prepared from purified MEK1 according to standard procedure, e.g. with EZ-Link Sulpho-NHS-LC-Biotin reagent, Pierce, #21335)] and carried out for 60 min at RT with constant shaking. The reaction is stopped by the addition of 12 μL/well of a 100 mM EDTA solution and incubation is continued for a further 5 min. 55 μL/well of the reaction solution are transferred into a streptavidin-coated plate (e.g. Streptawell HighBond, Roche, #11989685001) and shaken gently for 1 h at RT, in order to bind biotinylated MEK1 to the plate. After elimination of the liquid the plate is washed five times with 200 μL/well of 1×PBS and 100 μL/well solution of primary antibody plus europium-labelled secondary antibody [Anti Phospho-MEK (Ser217/221), Cell Signaling, #9121 and Eu-N1 labelled goat-anti-rabbit antibody, Perkin Elmer, #AD0105] is added, the primary antibody is diluted 1:2000 and the secondary antibody is diluted to 0.4-0.5 μg/mL in Delfia Assay Buffer (Perkin Elmer, #1244-111). After 1 h shaking at RT the solution is poured away and washed five times with 200 μL/well Delfia Wash Buffer (Perkin Elmer, #4010-0010/#1244-114). After the addition of 200 μL/well Enhancement Solution (Perkin Elmer, #4001-0010/#1244-105) the mixture is shaken for 10 min at RT and then measured in a Wallac Victor using the program “Delfia Time Resolved Fluorescence (Europium)”. IC50 values are obtained from these dosage-activity curves using a software program (GraphPadPrizm).

B-Raf (V600E)-kinase, sequence (P15056 whole entry V600E): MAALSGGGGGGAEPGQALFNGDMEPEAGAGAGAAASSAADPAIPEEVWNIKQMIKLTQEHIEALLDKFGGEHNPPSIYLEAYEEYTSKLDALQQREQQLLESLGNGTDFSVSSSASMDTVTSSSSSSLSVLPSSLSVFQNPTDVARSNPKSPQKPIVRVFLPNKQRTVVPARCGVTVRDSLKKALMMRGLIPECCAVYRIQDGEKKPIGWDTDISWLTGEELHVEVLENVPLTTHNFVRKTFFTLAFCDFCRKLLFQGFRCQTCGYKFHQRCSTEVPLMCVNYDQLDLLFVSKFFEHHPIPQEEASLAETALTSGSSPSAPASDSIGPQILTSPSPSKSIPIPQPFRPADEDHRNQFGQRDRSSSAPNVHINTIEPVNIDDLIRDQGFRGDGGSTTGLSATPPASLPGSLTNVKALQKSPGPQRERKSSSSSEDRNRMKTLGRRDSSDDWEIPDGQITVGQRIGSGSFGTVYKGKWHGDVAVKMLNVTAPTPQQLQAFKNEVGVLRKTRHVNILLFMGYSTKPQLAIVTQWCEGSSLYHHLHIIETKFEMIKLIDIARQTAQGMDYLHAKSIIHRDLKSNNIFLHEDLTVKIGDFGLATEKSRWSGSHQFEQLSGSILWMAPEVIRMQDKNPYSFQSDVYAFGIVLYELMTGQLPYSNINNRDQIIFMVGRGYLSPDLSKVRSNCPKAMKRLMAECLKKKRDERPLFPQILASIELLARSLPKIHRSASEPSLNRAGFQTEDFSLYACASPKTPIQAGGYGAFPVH

| Compound | IC50 |
| --- | --- |
| Cc1ccc(C(=O)Nc2cc(C(C)(C)C)on2)cc1-n1cc(-c2cncc(N3CCN(C4CCCC4)CC3)c2)nn1 [I-5] | 14 nM |
| CCCN1CCN(c2cncc(-c3cn(-c4cc(NC(=O)c5ccc(C(C)(C)C)s5)ccc4C)nn3)c2)CC1 [II-25] | 9 nM |
| Cc1ccc(NC(=O)c2ccc(C(C)(C)C)s2)cc1-n1cc(-c2cncc(N3CCN(C(C)(C)C)CC3)c2)nn1 [II-29] | 10 nM |
| Cc1ccc(NC(=O)c2cc(CN3CCN(C)CC3)c(C(C)(C)C)o2)cc1-n1cc(-c2cncc(N3CCOCC3)c2)nn1 [II-42] | 16 nM |
| Cc1ccc(C(=O)Nc2cc(C(C)(C)C)on2)cc1-n1cc(-c2cncc(N3CCC(N4CCN(C(C)C)CC4)C3)c2)nn1 (stereo not drawn) [I-92] | 8 nM |
| Cc1ccc(C(=O)Nc2cc(C(C)(C)C)on2)cc1-n1cc(-c2cncc(NC(C)(C)C)c2)nn1 [I-12] | 18 nM |
| Cc1ccc(NC(=O)c2cc(C(C)(C)C)on2)cc1-n1cc(-c2cncc(N3CCN(C)CC3)c2)nn1 [II-8] | 5 nM |
| Cc1ccc(C(=O)Nc2cc(C(C)(C)C)on2)cc1-n1cc(-c2cncc(N3CCN(C(C)C)CC3)c2)nn1 [I-44] | 11 nM |
| Cc1ccc(C(=O)Nc2cc(C(C)(C)C)on2)cc1-n1cc(-c2cncc(N3CCN(C)CC3)c2)nn1 [I-1] | 8 nM |
| COCCNc1cncc(-c2cn(-c3cc(C(=O)Nc4cc(C(C)(C)C)on4)ccc3C)nn2)c1 [I-36] | 16 nM |
| Cc1ccc(NC(=O)c2ccc(C(C)(C)C)o2)cc1-n1cc(-c2cncc(N3CCN(CC(C)C)CC3)c2)nn1 [II-19] | 5 nM |
| CCN1CCN(c2cncc(-c3cn(-c4cc(NC(=O)c5ccc(C(C)(C)C)o5)ccc4C)nn3)c2)CC1 [II-14] | 3 nM |
| Cc1ccc(NC(=O)c2cc(C)n(C(C)(C)C)n2)cc1-n1cc(-c2cncc(N3CCCN(C)CC3)c2)nn1 [II-39] | 9 nM |
| Cc1ccc(NC(=O)c2ccc(C(C)(C)C)s2)cc1-n1cc(-c2cncc(N3CCN(CC4CC4)CC3)c2)nn1 [II-31] | 8 nM |
| CCCCN1CCN(c2cncc(-c3cn(-c4cc(C(=O)Nc5cc(C(C)(C)C)on5)ccc4C)nn3)c2)CC1 [I-27] | 15 nM |
| CCCN1CCN(c2cncc(-c3cn(-c4cc(NC(=O)c5cc(C)n(C(C)(C)C)n5)ccc4C)nn3)c2)CC1 [II-37] | 11 nM |

| Compound | IC50 |
| --- | --- |
| CCN1CCN(c2cncc(-c3cn(-c4cc(NC(=O)c5cc(C)n(C(C)(C)C)n5)ccc4C)nn3)c2)CC1 [II-35] | 10 nM |
| Cc1ccc(C(=O)Nc2cc(C(C)(C)C)on2)cc1-n1cc(-c2cncc(N3CC(C)NC(C)C3)c2)nn1 (stereo not drawn) [I-32] | 9 nM |
| Cc1ccc(C(=O)Nc2cc(C(C)(C)C)on2)cc1-n1cc(-c2cncc(N3CCCN(C)CC3)c2)nn1 [I-91] | 8 nM |
| Cc1ccc(NC(=O)c2cc(C(C)(C)C)on2)cc1-n1cc(-c2cncc(N3CCOCC3)c2)nn1 [II-5] | 8 nM |
| Cc1ccc(NC(=O)c2cc(CN(C)C)c(C(C)(C)C)o2)cc1-n1cc(-c2cncc(N3CCOCC3)c2)nn1 [II-44] | 11 nM |
| COCC(C)Nc1cncc(-c2cn(-c3cc(C(=O)Nc4cc(C(C)(C)C)on4)ccc3C)nn2)c1 (stereo not drawn) [I-20] | 31 nM |
| Cc1ccc(NC(=O)c2ccc(C(C)(C)C)s2)cc1-n1cc(-c2cncc(N3CCN(C(=O)OC(C)(C)C)CC3)c2)nn1 [II-23] | 141 nM |
| Cc1ccc(C(=O)Nc2cc(C(C)(C)C)on2)cc1-n1cc(-c2cncc(N3CC(N4CCN(C)CC4)C3)c2)nn1 [I-93] | 8 nM |
| Cc1ccc(NC(=O)c2ccc(C(C)(C)C)o2)cc1-n1cc(-c2cncc(N3CCN(CC4CC4)CC3)c2)nn1 [II-16] | 2 nM |
| Cc1ccc(C(=O)Nc2cc(C(C)(C)C)on2)cc1-n1cc(-c2cncc(N3CCCN(C(C)C)CC3)c2)nn1 [I-52] | 18 nM |
| Cc1ccc(C(=O)Nc2cc(C(C)(C)C)on2)cc1-n1cc(-c2cncc(N3CCN(C(C)(C)C)CC3)c2)nn1 [I-4] | 12 nM |
| Cc1ccc(C(=O)Nc2cc(C(C)(C)C)on2)cc1-n1cc(-c2cncc(N3C[C@@H](C)O[C@@H](C)C3)c2)nn1 [I-23] | 26 nM |
| Cc1ccc(NC(=O)c2cc(C)n(C(C)(C)C)n2)cc1-n1cc(-c2cncc(N3CCOCC3)c2)nn1 [II-9] | 18 nM |
| Cc1ccc(C(=O)Nc2cc(C(C)(C)C)on2)cc1-n1cc(-c2cncc(N3CCN(C(C)C)C(C)C3)c2)nn1 (stereo not drawn) [I-37] | 20 nM |
| Cc1ccc(NC(=O)c2cc(CN3CCCC3)c(C(C)(C)C)o2)cc1-n1cc(-c2cncc(N3CCOCC3)c2)nn1 [II-10] | 11 nM |
| Cc1ccc(NC(=O)c2cc(C(C)(C)C)oc2C)cc1-n1cc(-c2cncc(N3CCOCC3)c2)nn1 [II-12] | 15 nM |

Continued, values first:

| IC50 | Compound |
| --- | --- |
| 13 nM | Cc1ccc(C(=O)Nc2cc(C(C)(C)C)on2)cc1-n1cc(-c2cncc(N(C)C)c2)nn1 [I-18] |
| 4 nM | Cc1ccc(C(=O)Nc2cc(C(F)(F)F)ccn2)cc1-n1cc(-c2cncc(N(C)C3CCN(C)C3)c2)nn1 (stereo not drawn) [I-78] |
| 9 nM | Cc1ccc(C(=O)Nc2cc(C(F)(F)F)ccn2)cc1-n1cc(-c2cncc(N(C)CCN3CCCC3)c2)nn1 [I-65] |
| 5 nM | Cc1ccc(C(=O)Nc2cc(C(F)(F)F)ccn2)cc1-n1cc(-c2cncc(N3CCNCC3)c2)nn1 [I-77] |
| 8 nM | Cc1ccc(C(=O)Nc2cc(C(F)(F)F)ccn2)cc1-n1cc(-c2cncc(N3CCN(C(C)C)CC3)c2)nn1 [I-88] |
| 6 nM | Cc1ccc(C(=O)Nc2cc(C(C)(C)C)on2)cc1-n1cc(-c2cncc(NC3CCOC3)c2)nn1 (stereo not drawn) [I-11] |
| 18 nM | CCN(C)c1cncc(-c2cn(-c3cc(C(=O)Nc4cc(C(C)(C)C)on4)ccc3C)nn2)c1 [I-56] |
| 41 nM | Cc1ccc(C(=O)Nc2cc(C(C)(C)C)on2)cc1-n1cc(-c2cncc(N3CCCC3)c2)nn1 [I-39] |
| 69 nM | Cc1ccc(C(=O)Nc2cc(C(F)(F)F)ccn2)cc1-n1cc(-c2cncc(N3CCCCC3)c2)nn1 [I-64] |
| 4 nM | Cc1ccc(NC(=O)c2cc(C(F)(F)F)ccn2)cc1-n1cc(-c2cncc(N3CCN(C)CC3)c2)nn1 [II-7] |
| 7 nM | Cc1ccc(C(=O)Nc2cc(C(F)(F)F)ccn2)cc1-n1cc(-c2cncc(N3CCCC3)c2)nn1 [I-84] |
| 11 nM | COCCN1CCN(c2cncc(-c3cn(-c4cc(C(=O)Nc5cc(C(F)(F)F)ccn5)ccc4C)nn3)c2)CC1 [I-61] |
| 44 nM | Cc1ccc(C(=O)Nc2cc(C(F)(F)F)ccn2)cc1-n1cc(-c2cncc(NC3CC3)c2)nn1 [I-66] |
| 11 nM | Cc1ccc(C(=O)Nc2cc(C(F)(F)F)ccn2)cc1-n1cc(-c2cncc(NCC3CCCO3)c2)nn1 (stereo not drawn) [I-58] |
| 10 nM | Cc1ccc(C(=O)Nc2cc(C(F)(F)F)ccn2)cc1-n1cc(-c2cncc(NCCN(C)C)c2)nn1 [I-85] |
| 10 nM | Cc1ccc(C(=O)Nc2cc(C(C)(C)C)on2)cc1-n1cc(-c2cncc(N3CCOCC3)c2)nn1 [I-47] |
| 12 nM | Cc1ccc(C(=O)Nc2cc(C(C)(C)C)n[nH]2)cc1-n1cc(-c2cncc(N3CCOCC3)c2)nn1 [I-13] |
| 16 nM | Cc1ccc(C(=O)Nc2cc(C(C)(C)C)on2)cc1-n1cc(-c2cncc(NCCF)c2)nn1 [I-22] |
| 14 nM | CNc1cncc(-c2cn(-c3cc(C(=O)Nc4cc(C(C)(C)C)on4)ccc3C)nn2)c1 [I-30] |
| 98 nM | Cc1ccc(C(=O)Nc2cc(C(C)(C)C)on2)cc1-n1cc(-c2cncc(N3CCN(CC(F)(F)F)CC3)c2)nn1 [I-31] |
| 11 nM | COCCN(C)c1cncc(-c2cn(-c3cc(C(=O)Nc4cc(C(C)(C)C)on4)ccc3C)nn2)c1 [I-53] |
| 12 nM | Cc1ccc(C(=O)Nc2cc(C(F)(F)F)ccn2)cc1-n1cc(-c2cncc(N3CCOCC3)c2)nn1 [I-72] |
| 30 nM | Cc1ccc(C(=O)Nc2cc(C(F)(F)F)ccn2)cc1-n1cc(-c2cncc(N(C)C3CCOCC3)c2)nn1 [I-69] |
| 11 nM | Cc1ccc(C(=O)Nc2cc(C(F)(F)F)ccn2)cc1-n1cc(-c2cncc(NC3CCOC3)c2)nn1 (stereo not drawn) [I-70] |
| 16 nM | Cc1ccc(C(=O)Nc2cc(C(C)(C)C)on2)cc1-n1cc(-c2cncc(N3CCCOCC3)c2)nn1 [I-17] |
| 7 nM | Cc1ccc(C(=O)Nc2cc(C(C)(C)C)on2)cc1-n1cc(-c2cncc(N(C)C3CCOCC3)c2)nn1 [I-29] |
| 24 nM | Cc1ccc(C(=O)Nc2cc(C(F)(F)F)ccn2)cc1-n1cc(-c2cncc(N3CCCOCC3)c2)nn1 [I-67] |
| 16 nM | Cc1ccc(C(=O)Nc2cc(C(F)(F)F)ccn2)cc1-n1cc(-c2cncc(N3CCC3)c2)nn1 [I-57] |
